According to patent publication US11939327B2, “Heterocyclic compounds” (Takeda Pharmaceutical Company Limited, priority 2017, dated 2024):

Biological target: T1, human GluR1 flip (Homo sapiens, UniProt P42261)
T1 construct: expressed in transfected cells; host or cells: CHO-K1
Assay: AMPA receptor function-enhancing activity using calcium influx as index (CHO-K1/GluR1 flip/stargazin-expressing cells)
Assay type: cell-based
Conditions: CHO-K1, test compound 30 μM with 3 mM glutamic acid, 100% = 3 mM glutamic acid + 300 μM cyclothiazide, 0% = 3 mM glutamic acid alone, read-out: hGluR1 flip/30 μM (%)
From the text: Experimental Example 1 Measurement method of AMPA receptor function-enhancing activity of compound using calcium influx as index
(1) Construction of Expression Gene
Human GluR1 flip cDNA was amplified by PCR method using forward primer […] (SEQ ID NO: 1) and reverse primer […] (SEQ ID NO: 2) artificially synthesized using human brain-derived cDNA (BD Bioscience) as a template. The amplified product was digested with restriction enzymes EcoRI, NotI (TAKARA SHUZO CO. LTD.) and incorporated into the same site of pcDNA3.1(+) (Invitrogen) to construct pcDNA3.1(+)/human GluR1 flip gene. Human stargazin cDNA was amplified by PCR method using forward primer […] (SEQ ID NO: 3) and reverse primer […] (SEQ ID NO: 4) artificially synthesized using human hippocampus cDNA as a template. The amplified product was digested with restriction enzymes XhoI, BamHI (TAKARA SHUZO CO. LTD.) and incorporated into the same site of pcDNA3.1(−) (Invitrogen) to construct pcDNA3.1 Zeo(−)/human stargazing gene.
(2) Construction of GluR1 Flip/Stargazin Expressing Cell
CHO-K1 cells passaged in a culture medium (Ham's F12 medium (Invitrogen) added with 10% inactivated fetal bovine serum (Morgate) and penicillin, streptomycin (Invitrogen)) were detached using 0.05% trypsin and 0.53 mM EDTA (Invitrogen) diluted with D-PBS(−). The detached cells were suspended in a culture medium, and recovered by centrifugation at 1,000 rpm. The recovered cells were re-suspended in D-PBS(−) and added into 0.4 cm electroporation cuvette (BioRad). pcDNA3.1(+)/human GluR1 flip gene (5 μg) and pcDNA3.1 Zeo(−)/human stargazin gene (15 μg) were added, and introduced into CHO-K1 cells under the conditions of 950 μFd, […] and using Gene Pulser II (BioRad). The introduced cells were cultured overnight in a culture medium. The next day, using a selection medium (culture medium added with zeocin (Invitrogen) at 250 μg/mL), the cells were plated in a 96 well plate at 250 cells/well. The clones showing drug resistance were selected, and GluR1 flip/stargazin expression clones were selected by an assay method shown below using calcium influx as an index.
(3) Measurement Method of AMPA Receptor Function-Enhancing Activity of Compound, Using Calcium Influx as an Index
CHO-K1/GluR1 flip/stargazin-expressing cells were plated on a 384 well black bottom transparent plate, and cultured for 2 days in a CO2 incubator (SANYO ELECTRIC Co. Ltd.) at 37° C. The medium of the cell plate was removed. A calcium indicator (Calcium5 Assay Kit, Molecular Devices) was diluted with an assay buffer (HBSS (Thermo Fisher Scientific), 0.1% BSA (Merck Millipoer) and 10 mM HEPES (Thermo Fisher Scientific)), and 1.25 mM probenecid (Dojindo Laboratories) was added thereto. The mixture prepared above was added at 30 μL/well (100 μL/well in case of 96 wells) to the well, and the well was left standing in 37° C., CO2 incubator for 1 hr. The cell plate was set in CellLux (PerkinElmer), a mixture (15 μL) (50 μL/well in case of 96 wells) of […] glutamic acid (final concentration 3 mM) diluted with an assay buffer and a test compound (test compound concentration 30 μM) was added thereto, and variation in the amount of fluorescence was measured for 3 min. The variation of fluorescence level of a well added with final concentration 3 mM of glutamic acid and 300 μM cyclothiazide (TOCRIS) was defined as 100%, the variation of fluorescence level of a well added with final concentration 3 mM of glutamic acid alone was defined as 0%, and the activity of the compound was calculated by the following formula. activity (%)=(X−C)/(T−C)×100 • T: variation of fluorescence level of well added with final concentration 3 mM of glutamic acid and 300 μM cyclothiazide • C: variation of fluorescence level of well added with final concentration 3 mM of glutamic acid alone • X: variation of fluorescence level of well added with test compound

T1 sequence (P42261 19-906 isoform P42261-2 limits assumed): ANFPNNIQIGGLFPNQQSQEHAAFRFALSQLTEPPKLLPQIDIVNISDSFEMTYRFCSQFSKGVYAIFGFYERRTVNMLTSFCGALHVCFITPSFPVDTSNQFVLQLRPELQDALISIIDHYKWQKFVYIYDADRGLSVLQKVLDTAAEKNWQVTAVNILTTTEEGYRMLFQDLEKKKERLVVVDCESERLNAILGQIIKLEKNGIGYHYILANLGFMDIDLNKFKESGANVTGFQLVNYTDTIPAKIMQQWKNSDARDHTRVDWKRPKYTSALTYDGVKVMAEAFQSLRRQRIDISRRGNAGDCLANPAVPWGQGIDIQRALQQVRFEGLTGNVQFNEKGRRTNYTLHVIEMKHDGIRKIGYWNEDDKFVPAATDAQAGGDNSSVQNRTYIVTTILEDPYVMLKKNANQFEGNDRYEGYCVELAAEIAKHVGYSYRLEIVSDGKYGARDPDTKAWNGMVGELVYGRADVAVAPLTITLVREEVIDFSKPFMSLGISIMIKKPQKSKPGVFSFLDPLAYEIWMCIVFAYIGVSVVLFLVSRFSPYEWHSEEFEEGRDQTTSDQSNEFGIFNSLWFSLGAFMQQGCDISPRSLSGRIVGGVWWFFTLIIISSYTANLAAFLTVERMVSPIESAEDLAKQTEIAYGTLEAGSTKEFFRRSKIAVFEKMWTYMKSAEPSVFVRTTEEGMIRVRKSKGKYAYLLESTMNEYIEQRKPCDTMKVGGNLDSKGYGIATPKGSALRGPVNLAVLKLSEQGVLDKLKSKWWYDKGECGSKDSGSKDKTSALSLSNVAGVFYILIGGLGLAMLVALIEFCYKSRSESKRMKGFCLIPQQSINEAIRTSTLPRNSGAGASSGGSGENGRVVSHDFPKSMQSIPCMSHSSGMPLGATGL
T1 sequence (Q9Y698 whole entry partner): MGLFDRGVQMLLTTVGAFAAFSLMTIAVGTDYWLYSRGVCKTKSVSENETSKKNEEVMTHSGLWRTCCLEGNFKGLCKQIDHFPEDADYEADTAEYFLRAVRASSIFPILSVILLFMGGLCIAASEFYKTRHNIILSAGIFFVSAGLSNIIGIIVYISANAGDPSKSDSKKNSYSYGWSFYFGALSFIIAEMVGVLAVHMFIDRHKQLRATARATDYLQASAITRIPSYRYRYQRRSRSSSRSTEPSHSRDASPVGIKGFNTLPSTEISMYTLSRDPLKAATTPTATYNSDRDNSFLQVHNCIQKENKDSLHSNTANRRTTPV

activation at 30 µM [%] | SMILES
79.3 | CCn1c(C(F)(F)F)nc2c(-c3ccc(C(=O)N4CCOCC4)cc3)cccc21 [Example 2, (4-(1-ethyl-2-(trifluoromethyl)-1H-benzimidazol-4-yl)phenyl)(morpholin-4-yl)methanone]
68.4 | CCn1c(C(F)(F)F)nc2c(-c3ccc(C(=O)N4CCOCC4)cc3)nccc21 [Example 4, (4-(1-ethyl-2-(trifluoromethyl)-1H-imidazo[4,5-c]pyridin-4-yl)phenyl)(morpholin-4-yl)methanone]
83.3 | O=C(c1ccc(-c2cccc3c2nc(C(F)(F)F)n3CC(F)F)cc1)N1CCOCC1 [Example 7, (4-(1-(2,2-difluoroethyl)-2-(trifluoromethyl)-1H-benzimidazol-4-yl)phenyl)(morpholin-4-yl)methanone]
109 | CCn1c(C(F)(F)F)nc2c(-c3ccc(C(=O)N4CCOCC4)c(F)c3)nccc21 [Example 8, (4-(1-ethyl-2-(trifluoromethyl)-1H-imidazo[4,5-c]pyridin-4-yl)-2-fluorophenyl)(morpholin-4-yl)methanone]
110 | CCn1c(C(F)(F)F)nc2c(-c3ccc(C(=O)N4CCO[C@@H](C)C4)c(F)c3)nccc21 [Example 9, (4-(1-ethyl-2-(trifluoromethyl)-1H-imidazo[4,5-c]pyridin-4-yl)-2-fluorophenyl)((2S)-2-methylmorpholin-4-yl)methanone]
80.3 | C[C@H]1CN(C(=O)c2ccc(-c3cccc4c3nc(C(F)(F)F)n4C)cc2F)CCO1 [Example 11, (2-fluoro-4-(1-methyl-2-(trifluoromethyl)-1H-benzimidazol-4-yl)phenyl)((2S)-2-methylmorpholin-4-yl)methanone]
84.4 | Cn1c(C(F)(F)F)nc2c(-c3ccc(C(=O)N4CCOCC4)c(F)c3)cccc21 [Example 12, (2-fluoro-4-(1-methyl-2-(trifluoromethyl)-1H-benzimidazol-4-yl)phenyl)(morpholin-4-yl)methanone]
112 | C[C@H]1CN(C(=O)c2ccc(-c3cccc4c3nc(C(F)(F)F)n4CC(F)F)cc2)CCO1 [Example 13, (4-(1-(2,2-difluoroethyl)-2-(trifluoromethyl)-1H-benzimidazol-4-yl)phenyl)((2S)-2-methylmorpholin-4-yl)methanone]
92.6 | O=C(c1ccc(-c2cccc3c2nc(C(F)(F)F)n3CC(F)F)cc1)N1CCCOCC1 [Example 14, (4-(1-(2,2-difluoroethyl)-2-(trifluoromethyl)-1H-benzimidazol-4-yl)phenyl)(1,4-oxazepan-4-yl)methanone]
72 | O=C(c1ccc(-c2nccc3c2nc(C(F)(F)F)n3CC(F)F)cc1F)N1CCCOCC1 [Example 15, (4-(1-(2,2-difluoroethyl)-2-(trifluoromethyl)-1H-imidazo[4,5-c]pyridin-4-yl)-2-fluorophenyl)(1,4-oxazepan-4-yl)methanone]
108 | O=C(c1ccc(-c2cccc3c2nc(C(F)(F)F)n3CC(F)F)cc1)N1CCOC(C(F)F)C1 (centres unmarked) [Example 16, (4-(1-(2,2-difluoroethyl)-2-(trifluoromethyl)-1H-benzimidazol-4-yl)phenyl)(2-(difluoromethyl)morpholin-4-yl)methanone]
95.1 | C[C@H]1CN(C(=O)c2ccc(-c3nccc4c3nc(C(F)(F)F)n4CC(F)F)cc2F)CCO1 [Example 17, (4-(1-(2,2-difluoroethyl)-2-(trifluoromethyl)-1H-imidazo[4,5-c]pyridin-4-yl)-2-fluorophenyl)((2S)-2-methylmorpholin-4-yl)methanone]
81 | CN(CCC#N)C(=O)c1ccc(-c2nccc3c2nc(C(F)(F)F)n3CC(F)F)cc1F [Example 19, N-(2-cyanoethyl)-4-(1-(2,2-difluoroethyl)-2-(trifluoromethyl)-1H-imidazo[4,5-c]pyridin-4-yl)-2-fluoro-N-methylbenzamide]
93.7 | CN(CCC#N)C(=O)c1ccc(-c2cccc3c2nc(C(F)(F)F)n3CC(F)F)cc1 [Example 21, N-(2-cyanoethyl)-4-(1-(2,2-difluoroethyl)-2-(trifluoromethyl)-1H-benzimidazol-4-yl)-N-methylbenzamide]
78.1 | O=C(c1ccc(-c2nccc3c2nc(C(F)(F)F)n3CC(F)F)cc1F)N1CCC1 [Example 24, azetidin-1-yl(4-(1-(2,2-difluoroethyl)-2-(trifluoromethyl)-1H-imidazo[4,5-c]pyridin-4-yl)-2-fluorophenyl)methanone]
79.3 | O=C(c1ccc(-c2nccc3c2nc(C(F)(F)F)n3CC(F)F)cc1F)N1CC(F)(F)C1 [Example 26, (3,3-difluoroazetidin-1-yl)(4-(1-(2,2-difluoroethyl)-2-(trifluoromethyl)-1H-imidazo[4,5-c]pyridin-4-yl)-2-fluorophenyl)methanone]
97.8 | CN(C(=O)c1ccc(-c2nccc3c2nc(C(F)(F)F)n3CC(F)F)cc1F)C1CCOCC1 [Example 28, 4-(1-(2,2-difluoroethyl)-2-(trifluoromethyl)-1H-imidazo[4,5-c]pyridin-4-yl)-2-fluoro-N-methyl-N-(tetrahydro-2H-pyran-4-yl)benzamide]
93 | O=C(c1ccc(-c2cccc3c2nc(C(F)(F)F)n3CC(F)F)cc1)N1CCOCC(F)(F)C1 [Example 29, (4-(1-(2,2-difluoroethyl)-2-(trifluoromethyl)-1H-benzimidazol-4-yl)phenyl)(6,6-difluoro-1,4-oxazepan-4-yl)methanone]
94.2 | O=C(c1ccc(-c2nccc3c2nc(C(F)(F)F)n3CC(F)F)cc1F)N1CCOCC(F)(F)C1 [Example 34, (4-(1-(2,2-difluoroethyl)-2-(trifluoromethyl)-1H-imidazo[4,5-c]pyridin-4-yl)-2-fluorophenyl)(6,6-difluoro-1,4-oxazepan-4-yl)methanone]
93.5 | O=C(c1ccc(-c2c(F)ccc3c2nc(C(F)(F)F)n3CC(F)F)cc1)N1CCOCC1 [Example 36, (4-(1-(2,2-difluoroethyl)-5-fluoro-2-(trifluoromethyl)-1H-benzimidazol-4-yl)phenyl)(morpholin-4-yl)methanone]

Same assay, conditions: test compound 30 μM with 3 mM glutamic acid, 100% = 3 mM glutamic acid + 300 μM cyclothiazide, 0% = 3 mM glutamic acid alone

hGluR1 flip/30 μM (%) | SMILES
105.5 | O=C(c1ccc(-c2cccc3c2nc(C(F)(F)F)n3CC(F)F)cc1)N1CCOC(C(F)F)C1 (centres unmarked) [Example 22, (4-(1-(2,2-difluoroethyl)-2-(trifluoromethyl)-1H-benzimidazol-4-yl)phenyl)(2-(difluoromethyl)morpholin-4-yl)methanone]
103 | O=C(c1ccc(-c2cccc3c2nc(C(F)(F)F)n3CC(F)F)cc1)N1CCOC(C(F)F)C1 (centres unmarked) [Example 23, (4-(1-(2,2-difluoroethyl)-2-(trifluoromethyl)-1H-benzimidazol-4-yl)phenyl)(2-(difluoromethyl)morpholin-4-yl)methanone]
92.6 | CN(CCC#N)C(=O)c1ccc(-c2nccc3c2nc(C(F)(F)F)n3CC(F)F)cc1F [Example 30, N-(2-cyanoethyl)-4-(1-(2,2-difluoroethyl)-2-(trifluoromethyl)-1H-imidazo[4,5-c]pyridin-4-yl)-2-fluoro-N-methylbenzamide]
